{
  "source": "patent US20130130909A1",
  "about": "“DCMU RESISTANCE IN NANNOCHLOROPSIS” (priority 2011, published 2013)",
  "key": {"[1]": {"test_system": "algae of genus Nannochloropsis (\"W2\")", "experiment": "DCMU incubation and fluorescence under low actinic light, Nannochloropsis culture", "type": "cell-based", "conditions": "100 nanomolar DCMU", "protocol": "Typically, DCMU is instantaneously efficacious at concentrations in the 0.1 micromolar to 50 micromolar range. The inventors herein discovered that algae of the genus Nannochloropsis, however, generally requires higher concentrations and relatively lengthy incubation periods for the effects of DCMU to take place.\n(§1) FIG. 3 (“FIG. 3”) is a graph of relative fluorescence rise versus percentage contaminating species for the algae of genus Chlorella as referred to in FIG. 2. In FIG. 3, the impact of the actinic light is seen in the relative fluorescence rise to the maximum fluorescence yield observed during an intense saturating pulse, during the low level actinic light treatment for the Chlorella culture, the same rise being absent from the Nannochloropsis culture."}, "algae of genus Chlorella": {"test_system": "algae of genus Chlorella", "experiment": "DCMU and fluorescence under low actinic light, Chlorella culture", "type": "cell-based", "conditions": "100 nanomolar DCMU", "excerpt": "as §1"}, "[2]": {"test_system": "weed algae of genus Tetraselmis", "experiment": "DCMU administered to 1 million liter open pond raceway systems with Nannochloropsis cultures invaded by Tetraselmis", "type": "in vivo", "protocol": "The inventors utilized commercially available DCMU at a field research site to kill the persistent weed algae of genus Tetraselmis. DCMU was administered to six 1 million liter open pond raceway systems wherein Nannochloropis cultures were cultivated at a density of approximately 270 milligrams per liter. Tetraselmis invasion in the ponds is shown in FIG. 6, and is quantified in Table 2 as a percentage of mass. The higher the percentage of mass, the higher the Tetraselmis invasion. The six 1 million liter open pond raceway systems are denoted in FIG. 6, Table 1, and Table 2 as Pond A1, Pond A2, Pond A3, Pond B1, Pond B2, and Pond B3.\nConsequently, as little as 100 grams, and as much as 400 grams, were needed. The commercial DCMU source was 90% DCMU by mass, so 90 grams and 360 grams effective amounts of DCMU (M.W. 233 amu) in 1 million liters of volume converts to DCMU concentrations of 0.38 micromolar and 1.55 micromolar, respectively.\nNote “D” denotes the dumping of the contents of the pond."}, "[3]": {"conditions": "corrected for 90% DCMU by mass, 1 million liters"}},
  "data": [
    {"smiles": "CN(C)C(=O)Nc1ccc(Cl)c(Cl)c1", "note": "[DCMU, 3-(3,4-dichlorophenyl)-1,1-dimethylurea]", "values": [
      {"measurement": "resistance of Nannochloropsis to DCMU", "setting": "[1]; 24 hour incubation period", "value": "completely resistant"},
      {"measurement": "effect of actinic light on PSII reaction centers in presence of DCMU, Nannochloropsis", "setting": "[1]; 50 micromolar quanta m^-2 s^-1 actinic light, FIG. 1", "value": "barely has an effect"},
      {"measurement": "effect of actinic light on PSII reaction centers in presence of DCMU, Chlorella", "setting": "algae of genus Chlorella; 50 micromolar quanta m^-2 s^-1 actinic light, FIG. 2", "value": "completely closes PSII reaction centers"},
      {"measurement": "herbicidal effect on Chlorella", "setting": "algae of genus Chlorella; Chlorella isolated from an invaded pond", "value": "strong herbicidal effect"},
      {"measurement": "effective DCMU concentration, lowest", "setting": "[2]; 90 grams in 1 million liters", "value": 0.38, "unit": "µM"},
      {"measurement": "effective DCMU concentration, highest", "setting": "[2]; 360 grams in 1 million liters", "value": 1.55, "unit": "µM"},
      {"measurement": "effective amount of DCMU, highest", "setting": "[2]; [3]", "value": 360, "unit": "grams"},
      {"measurement": "effective amount of DCMU, lowest", "setting": "[2]; [3]", "value": 90, "unit": "grams"}
    ]}
  ]
}
